From ChEMBL document CHEMBL5385962, “Beyond inhibition against the PD-1/PD-L1 pathway: development of PD-L1 inhibitors targeting internalization and degradation of PD-L1” (RSC Med Chem, 2024)
Values belong to the molecule of their own block, whether it stands above or below them.

Assays:
MC-38 [1] = experiment: Antitumor activity against mouse MC38 cells xenografted in BALB/c nude mouse assessed as inhibition of tumor growth at 2 mg/kg, po BID administered twice daily for 14 days relative to control; assay type: functional; design: scale not given: the % may be the effect or the level left; conditions: time 14 day
MC-38 [2] = experiment: Antitumor activity against mouse MC38 cells xenografted in BALB/c nude mouse assessed as inhibition of tumor growth at 200 mg/kg, po BID administered twice daily for 14 days relative to control; assay type: functional; design: scale not given: the % may be the effect or the level left; conditions: time 14 day
MC-38 [3] = experiment: Antitumor activity against mouse MC38 cells xenografted in BALB/c nude mouse assessed as inhibition of tumor growth at 20 mg/kg, po BID administered twice daily for 14 days relative to control; assay type: functional; design: scale not given: the % may be the effect or the level left; conditions: time 14 day
[4] = molecular target: Programmed cell death 1 ligand 1 (Mus musculus) (UniProt Q9EP73); experiment: Induction of PD-L1 degradation in mouse B16-F10 cells
[5] = molecular target: Programmed cell death 1 ligand 1 (Mus musculus) (UniProt Q9EP73); experiment: Induction of PD-L1 degradation in mouse CT26 cells
A-375 = experiment: Antiproliferative activity against human A-375 cells assessed as reduction in cell viability; assay type: functional, cell-based
B16-F10 = experiment: Antiproliferative activity against mouse B16-F10 cells assessed as reduction in cell viability; assay type: functional, cell-based
BGC-823 = experiment: PD-L1 degradation in human PD-L1 […] BGC-823 cells assessed as PD-L1 degradation rate at 10 to 20 uM incubated for 5 days by flow cytometry relative to control; conditions: dose 10-20 µM, time 5 day
[6] = Antitumor activity against humanized mouse MC38-hPD-L1 cells implanted in hPD-1 knockin C57BL/6 mouse assessed as reduction in tumor cell proliferation at 10 mg/kg, ip administered for 7 days starting from day 7 post tumor implantation by flow cytometry analysis relative to control; design: scale not given: the % may be the effect or the level left; conditions: time 7 day
[7] = molecular target: Programmed cell death protein 1/Programmed cell death 1 ligand 1 (Homo sapiens, UniProt Q9NZQ7); experiment: Inhibition of PD-1/PD-L1 interaction (unknown origin) incubated for 24 hrs by HTRF assay; assay type: protein-complex assay
Programmed cell death protein 1/Programmed cell death 1 ligand 1, sequence (Q15116 whole entry): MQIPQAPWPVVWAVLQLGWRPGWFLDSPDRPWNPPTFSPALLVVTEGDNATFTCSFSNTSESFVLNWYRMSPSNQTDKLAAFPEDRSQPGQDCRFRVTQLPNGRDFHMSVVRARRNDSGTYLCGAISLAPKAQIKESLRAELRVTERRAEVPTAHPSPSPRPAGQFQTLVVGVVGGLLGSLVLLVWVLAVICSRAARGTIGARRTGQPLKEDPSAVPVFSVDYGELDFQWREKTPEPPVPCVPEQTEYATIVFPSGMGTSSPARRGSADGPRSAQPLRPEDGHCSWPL
Programmed cell death protein 1/Programmed cell death 1 ligand 1, sequence (Q9NZQ7 whole entry): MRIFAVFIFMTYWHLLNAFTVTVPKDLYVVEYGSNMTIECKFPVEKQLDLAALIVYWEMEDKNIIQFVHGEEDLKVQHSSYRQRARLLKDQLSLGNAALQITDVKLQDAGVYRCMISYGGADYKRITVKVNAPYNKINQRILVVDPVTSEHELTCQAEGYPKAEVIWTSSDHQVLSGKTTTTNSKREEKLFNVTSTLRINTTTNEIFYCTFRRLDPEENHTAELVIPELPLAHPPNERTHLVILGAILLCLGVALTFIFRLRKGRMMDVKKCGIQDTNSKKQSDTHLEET

Structure (SMILES): Cc1c(Nc2nccc3cc(CN4CC[C@@H](O)C4)cnc23)cccc1-c1cccc(-c2nc3cc(CN4CC[C@@H](C(=O)O)C4)cc(C#N)c3o2)c1C
Activity (MC-38 [1]): 32%
Activity (MC-38 [2]): 69%
Activity (MC-38 [3]): 66%

Structure (SMILES): Cc1c(COc2cc(OCc3cccc(C#N)c3)c(CN3C[C@H](O)C[C@@H]3C(=O)O)cc2Cl)cccc1-c1ccc2c(c1)OCCO2
DC50 [4]: 390 nM
DC50 [5]: 350 nM

IC50 (A-375): 8.07 µM
IC50 (B16-F10): 14 µM
Structure (SMILES): COc1cc(OCc2cccc(-c3ccccc3)c2C)cc(OC)c1CNCCNC(=O)c1cn(CCOCCOCCOCCNc2cccc3c2C(=O)N(C2CCC(=O)NC2=O)C3=O)nn1 (stereo not given)

Structure (SMILES): Cc1nc(C)c(C(=O)OCc2ccccc2)c(CC(C)(C)C)c1C(=O)OCc1ccccc1
PD-L1 degradation rate (BGC-823): 66.99%

Structure (SMILES): Cc1c(NC(=O)c2ccc(CNCCO)cn2)cccc1-c1cccc(NC(=O)c2ccc(CNCCO)cn2)c1C
Activity [6]: 60.4%

Structure (SMILES): Cc1c(NC(=O)c2nc3c(n2C)CCN(C[C@H](C)O)C3)cccc1-c1cccc(NC(=O)c2nc3c(n2C)CCN(C)C3)c1Cl
IC50 [7]: < 1 nM
